These results are taken from ChEMBL document CHEMBL5034043, “Bifunctional Compounds as SMARCA2 Degraders for Treating Cancer” (ACS Med Chem Lett, 2022).

By DC50 is commonly meant the concentration giving 50% degradation. Higher therefore signals a less potent degrader.

For the assay, the target named is SWI/SNF-related matrix-associated actin-dependent regulator of chromatin subfamily A member 2 (Homo sapiens, UniProt P51531). As to the kind of experiment: Induction of degradation of HiBit-tagged SMARCA2 in human A549 cells incubated for 6 hrs by NanoGlo HiBiT lytic assay. The assay is classed as cell-based. (The HiBiT peptide binds its large partner to form an active luciferase.)
SWI/SNF-related matrix-associated actin-dependent regulator of chromatin subfamily A member 2, sequence (P51531 whole entry): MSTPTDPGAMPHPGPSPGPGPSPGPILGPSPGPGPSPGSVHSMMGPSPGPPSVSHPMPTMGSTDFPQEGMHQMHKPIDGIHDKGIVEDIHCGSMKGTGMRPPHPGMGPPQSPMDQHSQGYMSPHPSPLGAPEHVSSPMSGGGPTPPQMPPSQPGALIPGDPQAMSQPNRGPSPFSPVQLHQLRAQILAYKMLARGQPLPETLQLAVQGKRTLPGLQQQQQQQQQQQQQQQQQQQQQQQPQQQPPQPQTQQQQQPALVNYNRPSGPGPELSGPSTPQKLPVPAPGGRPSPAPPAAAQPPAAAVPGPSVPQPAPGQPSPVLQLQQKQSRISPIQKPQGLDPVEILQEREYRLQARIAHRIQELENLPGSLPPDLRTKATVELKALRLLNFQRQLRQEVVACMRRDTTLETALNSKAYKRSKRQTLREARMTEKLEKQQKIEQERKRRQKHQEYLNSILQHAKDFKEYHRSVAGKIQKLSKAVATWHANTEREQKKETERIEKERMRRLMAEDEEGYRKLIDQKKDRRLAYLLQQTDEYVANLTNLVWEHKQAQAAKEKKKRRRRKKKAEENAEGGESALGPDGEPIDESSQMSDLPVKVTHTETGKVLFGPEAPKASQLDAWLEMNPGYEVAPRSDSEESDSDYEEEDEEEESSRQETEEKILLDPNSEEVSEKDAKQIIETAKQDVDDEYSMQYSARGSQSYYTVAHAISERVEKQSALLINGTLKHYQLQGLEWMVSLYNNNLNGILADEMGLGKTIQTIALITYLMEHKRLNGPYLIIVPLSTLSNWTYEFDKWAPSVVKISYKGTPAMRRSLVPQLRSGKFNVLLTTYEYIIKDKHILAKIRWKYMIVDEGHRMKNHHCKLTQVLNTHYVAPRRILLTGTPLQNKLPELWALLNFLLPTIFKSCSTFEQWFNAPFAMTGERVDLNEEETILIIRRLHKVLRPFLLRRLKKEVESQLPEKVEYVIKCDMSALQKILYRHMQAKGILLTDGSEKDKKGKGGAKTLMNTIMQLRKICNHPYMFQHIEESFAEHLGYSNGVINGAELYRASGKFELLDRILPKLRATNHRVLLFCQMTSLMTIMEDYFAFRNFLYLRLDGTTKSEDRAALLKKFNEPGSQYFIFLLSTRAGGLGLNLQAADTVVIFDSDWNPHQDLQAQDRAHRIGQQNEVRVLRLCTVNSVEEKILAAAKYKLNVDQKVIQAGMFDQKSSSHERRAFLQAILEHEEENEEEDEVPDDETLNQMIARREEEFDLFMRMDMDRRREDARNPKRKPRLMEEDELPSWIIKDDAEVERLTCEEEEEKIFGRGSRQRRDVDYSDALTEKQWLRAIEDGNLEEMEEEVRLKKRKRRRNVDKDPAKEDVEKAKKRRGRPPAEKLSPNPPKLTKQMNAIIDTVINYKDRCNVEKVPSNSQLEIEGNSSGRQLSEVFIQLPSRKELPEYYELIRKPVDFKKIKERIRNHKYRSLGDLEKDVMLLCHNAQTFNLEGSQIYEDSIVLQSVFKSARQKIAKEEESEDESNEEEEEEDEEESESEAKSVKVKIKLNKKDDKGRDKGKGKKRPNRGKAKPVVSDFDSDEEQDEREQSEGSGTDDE
The molecule `Nc1nnc(-c2cc(F)ccc2O)cc1N1CC2CCC(C1)N2c1cccc(CN2CCN(C(=O)C3CCN(c4ccc5c(c4)C(=O)N(C4CCC(=O)NC4=O)C5=O)CC3)CC2)c1` (stereo unspecified) returned a DC50 of 3 nM.

`Nc1nnc(-c2ccccc2O)cc1N1CC(Oc2cccc(CN3CCN(C(=O)CN4CCC(c5ccc(NC6CCC(=O)NC6=O)cc5)CC4)CC3)c2)C1` (stereo unspecified) showed a DC50 of 3 nM. That is a single-digit nanomolar value. Regarding `Nc1nnc(-c2ccccc2O)cc1N1CC2CCC(C1)N2c1cccc(OCCN2CCN(CCCC3CCN(c4ccc5c(c4)C(=O)N(C4CCC(=O)NC4=O)C5=O)CC3)CC2)c1` (stereo unspecified), the DC50 was determined as 2 nM. Against the preceding molecule, the DC50 is about 1.5-fold lower. Regarding `Nc1nnc(-c2ccccc2O)cc1N1CCN(c2cccc(CN3CCN(C(=O)C4CCN(c5ccc6c(c5)C(=O)N(C5CCC(=O)NC5=O)C6=O)CC4)CC3)c2)C2(CC2)C1` (stereo unspecified), the DC50 is 4 nM. Turning to `Nc1nnc(-c2ccccc2O)cc1N1CC2CCC(C1)N2c1cccc(OCCN2CCN(CC3CCN(c4ccc5c(c4)C(=O)N(C4CCC(=O)NC4=O)C5=O)CC3)CC2)c1` (stereo unspecified), the DC50 turned out to be 2 nM. This DC50 lies about 2-fold lower than the previous one. Regarding `Nc1nnc(-c2ccccc2O)cc1N1CCC(C(=O)N2CCC(C(=O)N3CCN(c4ccc(C5CCC(=O)NC5=O)cc4)CC3)CC2)(c2ccccc2)CC1` (stereo unspecified), half-maximal degradation (DC50) was put at 3 nM.
